From US6770287B1, “Biocidal cellulosic material” (The Regents of the University of California, priority 2000, dated 2004)
Marks after values point to notes of the source that are not given here.

Test system: E. coli enhanced green fluorescent protein (B)GFP 0157:H7
Test: Biocidal wood blocks: CFU recovered after contact
Assay type: cell-based
Details: for average percent reduction of bacterium as compared to the untreated control blocks: estimated from the data of all trials
Procedure: The blocks were prepared by dividing large cutting boards into squares with sides measuring 5 cm using a table saw. The blocks were of the face-grain configuration. The edges were then smoothened with 120 or 180 grit sandpaper as needed to achieve uniformity among all blocks. The blocks were visually inspected to be the correct size and any blocks that appeared to deviate from the standard were remeasured and discarded if they were an incorrect size.
The blocks (Bemis Manufacturing Company, 300 Mill Street, PO Box 901, Sheboygan Falls, Wis., 53085-0901) were labeled based on concentration and ascending numbers. The blocks were immersed in solutions containing the following two formulations, respectively: […]
And the blocks were taken out from the solutions after they are completely soaked by the chemicals, and then dried at 80° C. in an oven for a prolonged time till they are completely dry. The curing of the blocks was conducted at 150° C. for over 30 minutes.
A bleach process is necessary to activate the biocide. A bleach solution containing about 0.05% sodium hypochlorite was prepared from a commercial Clorox liquid (containing 5.25% sodium hypochlorite). The volume of the solution was based on a liquid to wood mass ratio of 50:1. The blocks were scrubbed lightly on a sponge saturated with the chlorine solution from the bath for five strokes. The blocks were placed face down in the diluted bleach solution for 15 minutes. After 15 minutes the blocks were transferred directly to a cooling rack (to allow even drying) in a laminar flow hood that had been previously sterilized with a 70% ethanol solution and left with the exhaust turned on. The blocks were then left in the laminar flow hood until completely dry (at least five hours).
1. A sample of E. coli enhanced green fluorescent protein (B)GFP 0157:H7 was inoculated into a test tube of LB broth with 0.01% ampicillin and 0.01% novobiocin antibiotics (to be referred to as LBAN). The test tube was labeled and then incubated at 37° C. for 24 hours. The sample was then serial diluted with LBAN broth. 0.1 mL of the broth was then inoculated onto LB or Brain Heart Infusion (BHI) agar, also with ampicillin and 0.01% novobiocin antibiotics. The concentrations of 10^−7, 10^−6, and 10^−5 were spread plated. These plates were allowed to incubate for 24 hours at 37° C. The CFU/mL was determined by averaging the colonies from the plates of the most easily countable concentration.
7. The timer was started and the inoculum was spread on the blocks at the rate of one per 30 seconds.
8. 0.2 mL of the inoculum was spread onto the blocks using the pipet tip and pipetter. A new pipet tip was used for each block.
9. After the correct (variable) contact time, the blocks were carefully pressed on the agar surface for 20 seconds and then the plates were inverted and placed in an incubator at 37° C. for 24 hours.
10. The colonies were counted for each plate and thus the kills were determined for each concentration.

[1] = trial A, 5% biocide, inoculum 2.5 × 10^5, contact time 5 minutes
[2] = trial A, 10% biocide, inoculum 2.5 × 10^5, contact time 5 minutes
[3] = trial B, 5% biocide, inoculum 1.8 × 10^5, contact time 5 minutes
[4] = trial B, 10% biocide, inoculum 1.8 × 10^5, contact time 5 minutes
[5] = trial C, 5% biocide, inoculum 1.4 × 10^5, contact time 5 minutes
[6] = trial C, 10% biocide, inoculum 1.4 × 10^5, contact time 5 minutes
[7] = trial D, 5% biocide, inoculum 1.4 × 10^5, contact time 5 minutes
[8] = trial D, 10% biocide, inoculum 1.4 × 10^5, contact time 5 minutes
[9] = trial E, 5% biocide, inoculum 1.0 × 10^4, contact time 5 minutes
[10] = trial E, 10% biocide, inoculum 1.0 × 10^4, contact time 5 minutes
[11] = trial F, 5% biocide, inoculum 1.0 × 10^4, contact time 5 minutes
[12] = trial F, 10% biocide, inoculum 1.0 × 10^4, contact time 5 minutes
[13] = trial G, 5% biocide, inoculum 3.3 × 10^4, contact time 2.5 minutes
[14] = trial G, 10% biocide, inoculum 3.3 × 10^4, contact time 2.5 minutes
[15] = trial H, 5% biocide, inoculum 3.3 × 10^4, contact time 5 minutes
[16] = trial H, 10% biocide, inoculum 3.3 × 10^4, contact time 5 minutes
[17] = trial I, 5% biocide, inoculum 1.0 × 10^4, contact time 5 minutes
[18] = trial I, 10% biocide, inoculum 1.0 × 10^4, contact time 5 minutes
[19] = trial J, 1st line, 5% biocide, inoculum 1.37 × 10^5, contact time 5 minutes
[20] = trial J, 1st line, 10% biocide, inoculum 1.37 × 10^5, contact time 5 minutes
[21] = trial J, 2nd line, 5% biocide, inoculum 1.37 × 10^5, contact time 5 minutes
[22] = trial J, 2nd line, 10% biocide, inoculum 1.37 × 10^5, contact time 5 minutes
[23] = trial K, New Blocks, 5% biocide, inoculum 1.2 × 10^4, contact time 5 minutes
[24] = trial K, New Blocks, 10% biocide, inoculum 1.2 × 10^4, contact time 5 minutes
[25] = trial K, Old Blocks, 5% biocide, inoculum 1.2 × 10^4, contact time 5 minutes
[26] = trial K, Old Blocks, 10% biocide, inoculum 1.2 × 10^4, contact time 5 minutes
[27] = trial L, New Blocks, 5% biocide, inoculum 8.0 × 10^1, contact time 5 minutes
[28] = trial L, New Blocks, 10% biocide, inoculum 8.0 × 10^1, contact time 5 minutes
[29] = trial L, Old Blocks, 5% biocide, inoculum 8.0 × 10^1, contact time 5 minutes
[30] = trial L, Old Blocks, 10% biocide, inoculum 8.0 × 10^1, contact time 5 minutes
[31] = trial M, New Blocks, 5% biocide, inoculum 6.45 × 10^3, contact time 10 minutes
[32] = trial M, New Blocks, 10% biocide, inoculum 6.45 × 10^3, contact time 10 minutes
[33] = trial M, Old Blocks, 5% biocide, inoculum 6.45 × 10^3, contact time 10 minutes
[34] = trial M, Old Blocks, 10% biocide, inoculum 6.45 × 10^3, contact time 10 minutes
[35] = trial N, New Blocks, 5% biocide, inoculum 6.6 × 10^4 CFU/mL, contact time 10 minutes
[36] = trial N, New Blocks, 10% biocide, inoculum 6.6 × 10^4 CFU/mL, contact time 10 minutes
[37] = trial N, Old Blocks, 5% biocide, inoculum 6.6 × 10^4 CFU/mL, contact time 10 minutes
[38] = trial N, Old Blocks, 10% biocide, inoculum 6.6 × 10^4 CFU/mL, contact time 10 minutes

`CC1(C)C(=O)N(CO)C(=O)N1CO` [Anti-2, 1,3-dimethylol-5,5-dimethylhydantoin] was tested, and the “average percent reduction of bacterium as compared to the untreated control blocks” value (5% blocks) was “about 86%”, the “average percent reduction of bacterium as compared to the untreated control blocks” value (10% concentration blocks) was 91% and the “means CFU/block ± standard deviation” value [1] was 125.3 ± 74.1 CFU/block. The “percentage reduction compared to control” value [1] was “(85.0%)**”, the “means CFU/block ± standard deviation” value [2] was 166.3 ± 132.2 CFU/block and the “percentage reduction compared to control” value [2] was “(81.2%)**”. The “means CFU/block ± standard deviation” value [3] was 11.6 ± 11.4 CFU/block, the “percentage reduction compared to control” value [3] was “(97.6%)” and the “means CFU/block ± standard deviation” value [4] was 26.3 ± 27.6 CFU/block. The “percentage reduction compared to control” value [4] was “(94.5%)”, the “means CFU/block ± standard deviation” value [5] was 65 ± 23.5 CFU/block and the “percentage reduction compared to control” value [5] was “(85.4%)”. For the same compound, the “means CFU/block ± standard deviation” value [6] was 48 ± 44.2 CFU/block, the “percentage reduction compared to control” value [6] was “(89.2%)” and the “means CFU/block ± standard deviation” value [7] was 19.8 ± 6.8 CFU/block. For the same compound, the “percentage reduction compared to control” value [7] was “(95.0%)”, the “means CFU/block ± standard deviation” value [8] was 26.8 ± 20.1 CFU/block and the “percentage reduction compared to control” value [8] was “(93.2%)”. The “means CFU/block ± standard deviation” value [9] was 2.5 ± 2.9 CFU/block, the “percentage reduction compared to control” value [9] was “(97.7%)” and the “means CFU/block ± standard deviation” value [10] was 2.3 ± 3.4 CFU/block. For the same compound, the “percentage reduction compared to control” value [10] was “(97.8%)”, the “means CFU/block ± standard deviation” value [11] was 25.9 ± 13.8 CFU/block and the “percentage reduction compared to control” value [11] was “(94.3%)”. The “means CFU/block ± standard deviation” value [12] was 31.7 ± 25.1 CFU/block, the “percentage reduction compared to control” value [12] was “(93.1%)” and the “means CFU/block ± standard deviation” value [13] was 20.8 ± 13.8 CFU/block. The “percentage reduction compared to control” value [13] was “(89.8%)”, the “means CFU/block ± standard deviation” value [14] was 10.3 ± 7.8 CFU/block and the “percentage reduction compared to control” value [14] was “(95.0%)”. For the same compound, the “means CFU/block ± standard deviation” value [15] was 14 ± 11.4 CFU/block, the “percentage reduction compared to control” value [15] was “(80.1%)” and the “means CFU/block ± standard deviation” value [16] was 7.4 ± 4.0 CFU/block. For the same compound, the “percentage reduction compared to control” value [16] was “(89.9%)”, the “means CFU/block ± standard deviation” value [17] was 12.3 ± 8.4 CFU/block and the “percentage reduction compared to control” value [17] was “(73.8%)”. The “means CFU/block ± standard deviation” value [18] was 6 ± 4.2 CFU/block, the “percentage reduction compared to control” value [18] was “(87.2%)” and the “means CFU/block ± standard deviation” value [19] was 63.7 ± 45.1 CFU/block. For the same compound, the “percentage reduction compared to control” value [19] was “(80.6%)”, the “means CFU/block ± standard deviation” value [20] was 37.9 ± 14.3 CFU/block and the “percentage reduction compared to control” value [20] was “(88.5%)”. For the same compound, the “means CFU/block ± standard deviation” value [21] was 45.8 ± 19.2 CFU/block, the “percentage reduction compared to control” value [21] was “(85.8%)” and the “means CFU/block ± standard deviation” value [22] was 14.6 ± 12.5 CFU/block. For the same compound, the “percentage reduction compared to control” value [22] was “(95.5%)”, the “means CFU/block ± standard deviation” value (trial J, 3rd line, 5% biocide, inoculum 1.37 × 10^5, contact time 5 minutes) was 37.4 ± 15.8 CFU/block and the “means CFU/block ± standard deviation” value (trial J, 3rd line, 10% biocide, inoculum 1.37 × 10^5, contact time 5 minutes) was 29.7 ± 25.1 CFU/block. For the same compound, the “means CFU/block ± standard deviation” value [23] was 7.7 ± 3.0 CFU/block, the “percentage reduction compared to control” value [23] was “(90.7%)” and the “means CFU/block ± standard deviation” value [24] was 4.9 ± 5.8 CFU/block. For the same compound, the “percentage reduction compared to control” value [24] was “(94.1%)”, the “means CFU/block ± standard deviation” value [25] was 12.0 ± 9.4 CFU/block and the “percentage reduction compared to control” value [25] was “(77.3%)”. The “means CFU/block ± standard deviation” value [26] was 9.3 ± 5.4 CFU/block, the “percentage reduction compared to control” value [26] was “(82.4%)” and the “means CFU/block ± standard deviation” value [27] was 0.17 ± 0.41 CFU/block. The “percentage reduction compared to control” value [27] was “(98.1%)”, the “means CFU/block ± standard deviation” value [28] was 0 ± 0 CFU/block and the “percentage reduction compared to control” value [28] was “(100%”. For the same compound, the “means CFU/block ± standard deviation” value [29] was 1.3 ± 1.3 CFU/block, the “percentage reduction compared to control” value [29] was “(88.9%)” and the “means CFU/block ± standard deviation” value [30] was 0.67 ± 0.71 CFU/block. The “percentage reduction compared to control” value [30] was “(94.3%)”, the “means CFU/block ± standard deviation” value [31] was 3.3 ± 2.4 CFU/block and the “percentage reduction compared to control” value [31] was “(60.2%”. For the same compound, the “means CFU/block ± standard deviation” value [32] was 1.6 ± 1.8 CFU/block, the “percentage reduction compared to control” value [32] was “(80.7%)” and the “means CFU/block ± standard deviation” value [33] was 3.3 ± 2.1 CFU/block. The “percentage reduction compared to control” value [33] was “(82.4%)”, the “means CFU/block ± standard deviation” value [34] was 3.3 ± 2.4 CFU/block and the “percentage reduction compared to control” value [34] was “(82.4%)”. For the same compound, the “means CFU/block ± standard deviation” value [35] was 17.8 ± 4.8 CFU/block, the “percentage reduction compared to control” value [35] was “(88.2%)” and the “means CFU/block ± standard deviation” value [36] was 6.2 ± 5.8 CFU/block. The “percentage reduction compared to control” value [36] was “(95.9%)”, the “means CFU/block ± standard deviation” value [37] was 20.7 ± 6.1 CFU/block and the “percentage reduction compared to control” value [37] was “(86.5%)”. For the same compound, the “means CFU/block ± standard deviation” value [38] was 15.9 ± 6.7 CFU/block, the “percentage reduction compared to control” value [38] was “(89.6%)” and the “more effective reductions of the bacterium on newer blocks than on old blocks” value (trials J-N, new versus old blocks) was 5-10%.
